In patent publication US20220193241A1, “AGENT TARGETING DOUBLE-MEMBRANE ORGANELLE DNA” (CHIBA-PREFECTURE, priority 2019, published 2022):

Legend:
A549 cells [1] = assay: Synthetic lethality: cell morphology with CCC021-TPP and ABT-199 or A1155463; type: cell-based; settings: single administration: 20 μM CCC021-TPP, 10 μM ABT-199, 10 μM A1155463; 4 days
Method: It was confirmed with the BCL2- and BCL-XL-specific inhibitor that the suppression of cell death in the cellular senescence of the A549 cells was presumably due to the BCL pathway. The type of BCL pathway inhibition, combined use of which could induce cell death (apoptosis) in the senescent cells of the A549 cells was studied. Five hundred A549 cells were inoculated to a 96-well plate and cultured for 24 hours. Then, change in cell morphology was photographed under an optical microscope either without administration (i.e., after DMSO treatment) or 4 days after treatment with 20 μM CCC021-TPP and 10 μM BCL2 inhibitor ABT-199 (compound venetoclax of No. 33 in FIG. 55-10) or 10 μM BCL-XL inhibitor A1155463 (compound of No. 16 in FIG. 55-6) each alone, or treatment by combined use of the same concentration of CCC021-TPP with the same concentration of ABT-199 or A1155463.

A549 cells [2] = assay: Synthetic lethality: cell morphology with CCC021-TPP and ABT-263; type: cell-based; settings: each used alone: 20 μM CCC021-TPP, 10 μM ABT-263; days 2 and 4
Description: Since the suppression of cell death in the cellular senescence of the A549 cells was presumably due to the BCL pathway, it was believed that the apoptosis of cells whose cellular senescence was evoked by CCC021-TPP could be induced by combined use with ABT-263 (Cayman Chemical Company) serving as a senolytic drug and a BCL pathway inhibitor. Thus, the possibility of inducing the cell death of senescent cells by CCC021-TPP treatment and combined use with the BCL2/BCL-XL inhibitor ABT-263 was observed under an optical microscope to observe change in cell morphology. Five hundred A549 cells were inoculated to a 96-well plate, cultured for 24 hours, and then observed over time under an optical microscope either without administration or after administration of 20 μM CCC021-TPP and 10 μM ABT-263 each used alone or used concurrently, and cell morphology was photographed on days 2 and 4.

3243G High cells = assay: Mitochondrial autophagy (LC3 / cytochrome C immunostaining); type: cell-based, human; settings: 100 nM, 52 hours after treatment
Method: In order to study whether the decrease in the number of mutant mtDNA by PIP-TPP was caused by mitochondrial autophagy reaction, the following experiment was conducted. The mtDNA mutation cell line 3243G High cells were inoculated at 2×10^4 cells/dish to a 35 mm glass base dish (IWAKI), cultured for 24 hours, and then treated with the compound (final concentration: 100 nM). 52 hours after treatment, the cells were fixed with 4% paraformaldehyde (PFA)/PBS at room temperature for 30 minutes. The cells thus fixed were washed with PBS and blocked with 10% FBS/0.1% Triton X100/TBS (TBST) for 10 minutes. TBS is a mixed solution of sodium chloride (final concentration: […]) and Tris (pH 7.4) (final concentration: […]). After the completion of blocking, the cells were reacted overnight at 4° C. with primary antibodies diluted with TBST. The primary antibodies used were a rabbit anti-LC3 antibody (Cell Signaling Technology, Inc.) diluted at 1:200, and a mouse anti-cytochrome C antibody (Thermo Fisher Scientific, USA) diluted at 1:500. After the completion of reaction with the primary antibodies, the cells were washed three times with TBS and reacted for 15 minutes with secondary antibodies diluted with TBST, i.e., Goat anti Rabbit Oregon Green 488 (Invitrogen) diluted at 1:1000 and Goat anti Mouse Alexa Fluor 647 (Invitrogen) diluted at 1:1000. […]

3243G Low cells [3] = assay: Total mitochondrial DNA copy number by PCR of COII gene; type: cell-based, human; settings: 1 μM and 5 μM, 48- or 63-day treatment
Method: (§1) The 3243G Low cells were inoculated at 2×10^4 cells/well to a 35 mm dish (Falcon, USA), cultured for 24 hours, and then treated with CCC019-TPP (final concentration: 1 μM and 5 μM). The medium was replaced once two days, and CCC019-TPP was continuously administered. Further, 48 and 63 days later, DNA was extracted using Allprep DNA/RNA Mini Kit (QIAGEN, Germany) according to the instruction manual. The yield of the DNA thus extracted was measured using NANODROP 2000c (Thermo Fisher Scientific). DNA samples were prepared, and PCR reaction and analysis were conducted. The primers and reaction conditions used are shown below.
(§2) The reaction conditions were as follows.
After the completion of PCR reaction, PCR products were electrophoresed on 2% agarose gel and then stained with ethidium bromide to detect bands of the PCR products. The bands were quantified with analytical software (Image J).
In order to predict the total copy number of mtDNA in the 3243G Low cells treated with CCC019-TPP for 48 or 63 days, COII gene constituting mitochondrial respiratory chain complex IV was subjected to PCR.

3243G Low cells [4] = assay: Ratio between normal mtDNA and mutant mtDNA by PCR-RFLP; type: cell-based, human; settings: 1 μM and 5 μM, 48- or 63-day treatment
Method: as §1, with “(Falcon),” for “(Falcon, USA),”, “(QIAGEN)” for “(QIAGEN, Germany)”, “2000™” for “2000c”, “was” for “and analysis were”
as §2
PCR products were treated with restriction enzyme ApaI as described below, and analyzed. The PCR products were purified using QIAquick PCR Purification Kit (QIAGEN) according to the instruction manual. After the purification, the yield of DNA was measured using NANODROP 2000c (Thermo Fisher Scientific). After the measurement, reaction products amplified in PCR System 9700 (Applied Biosystems, USA) GeneAmp(R) were treated with restriction enzyme Apal at 37° C. for 5 hours. After the completion of reaction, 15 ng of samples was electrophoresed on 2% agarose gel and then stained with ethidium bromide to detect bands of the PCR products. The bands were quantified with analytical software (Image J). […]

[5] = Skin penetrability confirmation experiment (anti-TPP immunohistochemical staining); type: in vivo, mice ICR; settings: 18 hours
Method: Outbred mice ICR were purchased from Oriental Yeast Co., Ltd. The experiment was conducted by the administration of linear-chain PIP-TPP (CCC149-TPP) having a molecular weight of 1274.7 to the mouse back. The back skin of each 5-week-old ICR mouse was shaved. After confirmation that the hair growth cycle was not reached, DMSO containing no PIP-TPP, and solutions of PIP-TPP (dissolved in DMSO, dissolved in 95% DMSO/5% laurocapram (transdermal absorption promoter) and dissolved in 95% DMSO/5% laurocapram 24 hours after stratum corneum removal) adjusted so as to attain 30 mg/cm^2 were applied to 4 locations, respectively, of the back as shown in FIG. 28 at the age of 6 weeks. 18 hours later, the mouse was euthanized, and skin tissues were obtained and fixed in 4% paraformaldehyde. Then, paraffin blocks were prepared and co-stained by immunohistochemical staining with an anti-TPP antibody and DAPI staining of the nucleus to test the skin penetrability of the drug into cells and subcutaneous tissues.

C33A = assay: WST cell proliferation assay of library compounds; type: cell-based; settings: Homo sapiens, C-33-A, 120 h, 5 days
Method: (§3) This compound can recognize the T4216C mutation of mitochondrial ND1 gene, and a uterine cervical cancer cell line C33A has this mutation. Cell proliferation assay with wild-type HeLa cells, which is also a uterine cervical cancer cell line, was conducted in the same manner as in Example 1. 1000 cells were inoculated to a 96-well plate, and CCC1283-TPP was administered at 0.5, 1, 5, 10, and 20 μM. 5 days later, WST assay was conducted.
as §3, with “CCCh531-TPP” for “CCC1283-TPP”
(§4) Compound CCCh560-TPP with a decacyclic structure targeting the A8860G polymorphism of mitochondrial gene ATP6 found in human populations, not acquired mitochondrial mutations in somatic cells, was studied for whether the suppression of cell proliferation was also found by 5-day treatment with the compound for the mitochondrial DNA polymorphism in cancer cell lines C33A, HeLa, Siha, Caski, and ME180 having this polymorphism in homoplasmy and human nontumor skin-derived fibroblast HDF cells. For this purpose, cell proliferation assay was conducted in the same manner as in Example 1. 1000 cells were inoculated to a 96-well plate, and CCCh560-TPP was administered at 0.5, 1, 5, 10, and 20 μM. 5 days later, WST assay was conducted.

HeLa cells = assay: WST cell proliferation assay of library compounds; type: cell-based; settings: Homo sapiens, 120 h, 5 days
Method: as §3
as §3, with “CCCh531-TPP” for “CCC1283-TPP”
as §4

SMILES: CN(C)CC#Cc1ccc(OCCCc2sc(N3CCc4cccc(C(=O)Nc5nc6ccccc6s5)c4C3)nc2C(=O)O)c(F)c1 [A1155463, reference compound]
- cell death (morphology) (A549 cells [1]): Any finding indicating cell death was not obtained

SMILES: CC1(C)CCC(c2ccc(Cl)cc2)=C(CN2CCN(c3ccc(C(=O)NS(=O)(=O)c4ccc(N[C@H](CCN5CCOCC5)CSc5ccccc5)c(S(=O)(=O)C(F)(F)F)c4)cc3)CC2)C1 [ABT-263, Navitoclax (ABT-263), reference compound]
- cells that underwent apoptosis (morphology) (A549 cells [2]): not detected

SMILES: CC(=O)Nc1cn(C)c(C(=O)Nc2cn(C)c(C(=O)Nc3cn(C)c(C(=O)NCCC(=O)Nc4cc(C(=O)Nc5cc(C(=O)NCCCC(=O)Nc6cn(C)c(C(=O)Nc7cn(C)c(C(=O)Nc8cn(C)c(C(=O)NCCC(=O)Nc9cc(C(=O)Nc%10cc(C(=O)NCCC(=O)NCCCN(C)C)n(C)c%10)n(C)c9)n8)n7)n6)n(C)c5)n(C)c4)n3)n2)n1 [CCC018-TPP]
- colocalization of autophagic marker LC3 with mitochondria (mitophagy) (3243G High cells): colocalization of the autophagic effect with mitochondria was clearly observed

SMILES: CN(C)CCCNC(=O)CCNC(=O)c1nc(NC(=O)c2nc(NC(=O)CCNC(=O)c3cc(NC(=O)c4nc(NC(=O)c5nc(NC(=O)CCCNC(=O)c6cc(NC(=O)c7cc(NC(=O)c8nc(NC(=O)CCNC(=O)c9cc(NC(=O)c%10cc(NC(=O)CCNC(=O)CCCC[P+](c%11ccccc%11)(c%11ccccc%11)c%11ccccc%11)cn%10C)cn9C)cn8C)cn7C)cn6C)cn5C)cn4C)cn3C)cn2C)cn1C [CCC019-TPP]
- total copy number of mtDNA (3243G Low cells [3]): tendency to increase the total copy number of mtDNA
- ratio between normal mtDNA and mutant mtDNA (3243G Low cells [4]): tendency to increase the proportion of wild-type mitochondrial DNA and decrease the proportion of mutant mitochondrial DNA

SMILES: CN(C)CCCNC(=O)CCNC(=O)c1cc(NC(=O)c2nc(NC(=O)CCNC(=O)c3nc(NC(=O)c4cc(NC(=O)c5nc(NC(=O)CCNC(=O)CCCC[P+](c6ccccc6)(c6ccccc6)c6ccccc6)cn5C)cn4C)cn3C)cn2C)cn1C [CCC149-TPP]
- skin penetrability (anti-TPP stain) ([5]; 95% DMSO/5% laurocapram (transdermal absorption promoter)): stain of TPP was found in the perikaryon of subcutaneous tissues
- skin penetrability (anti-TPP stain) ([5]; applied to back skin, dissolved in DMSO): present in skin basement membrane cells
- skin penetrability (anti-TPP stain) ([5]; stratum corneum removal and 95% DMSO/5% laurocapram): more clearly found into the subcutaneous tissues and muscular coat

SMILES: CN(C)CCCNC(=O)CCNC(=O)c1cc(NC(=O)c2cc(NC(=O)c3nc(NC(=O)CCNC(=O)c4cc(NC(=O)c5cc(NC(=O)CCCNC(=O)c6nc(NC(=O)c7cc(NC(=O)CCNC(=O)c8cc(NC(=O)c9cc(NC(=O)c%10nc(NC(=O)CCNC(=O)CC[P+](c%11ccccc%11)(c%11ccccc%11)c%11ccccc%11)cn%10C)cn9C)cn8C)cn7C)cn6C)cn5C)cn4C)cn3C)cn2C)cn1C [CCCh531-TPP]
- IC50 (C33A): 3.34 µM
- IC50 (HeLa cells): 11.8 µM
